Results from US8581605B2 (priority 2006, dated 2013).

Format: biochemical
Settings: pH 7.4

## α-hemolysin [αHL]
  single-channel conductance of the αHL channel: ~900 pS
